The supplement of paper PMC13380429

Legend:
Conditions in all cases: 72 h
[1] = tested on: Caco-2; assay: drug sensitivity score (DSS) for viability; higher = more toxic; extreme values may be limits of the assay
[2] = tested on: Vero E6; assay: as above
[3] = tested on: Calu-3; assay: as above
[4] = tested on: HepG2; assay: as above
[5] = tested on: U2OS; assay: as above
[6] = tested on: Caco-2; assay: relative viability EC50 (midpoint between 100% and the lowest measured viability); higher = less toxic
[7] = tested on: Vero E6; assay: as above
[8] = tested on: Calu-3; assay: as above
[9] = tested on: HepG2; assay: as above
[10] = tested on: U2OS; assay: as above
[11] = tested on: Caco-2; assay: cell viability relative to DMSO; higher = less toxic
[12] = tested on: Vero E6; assay: as above
[13] = tested on: Calu-3; assay: as above
[14] = tested on: HepG2; assay: as above
[15] = tested on: U2OS; assay: as above

Compound | drug sensitivity score [1] | drug sensitivity score [2] | drug sensitivity score [3] | drug sensitivity score [4] | drug sensitivity score [5] | relative viability EC50 [6] | relative viability EC50 [7] | relative viability EC50 [8] | relative viability EC50 [9] | relative viability EC50 [10] | cell viability ([11]; 1 nM) | cell viability ([11]; 10 nM) | cell viability ([11]; 100 nM) | cell viability ([11]; 1000 nM) | cell viability ([11]; 10000 nM) | cell viability ([12]; 1 nM) | cell viability ([12]; 10 nM) | cell viability ([12]; 100 nM) | cell viability ([12]; 1000 nM) | cell viability ([12]; 10000 nM) | cell viability ([13]; 1 nM) | cell viability ([13]; 10 nM) | cell viability ([13]; 100 nM) | cell viability ([13]; 1000 nM) | cell viability ([13]; 10000 nM) | cell viability ([14]; 1 nM) | cell viability ([14]; 10 nM) | cell viability ([14]; 100 nM) | cell viability ([14]; 1000 nM) | cell viability ([14]; 10000 nM) | cell viability ([15]; 1 nM) | cell viability ([15]; 10 nM) | cell viability ([15]; 100 nM) | cell viability ([15]; 1000 nM) | cell viability ([15]; 10000 nM)
C[C@@H](CN)CC(=O)O [3-methyl-GABA] | 0.1 | 0 | 0 | 0 | 0 | > 10 µM | > 10 µM | > 10 µM | > 10 µM | > 10 µM | 85.9% | 94.9% | 84.6% | 101% | 88.8% | 100% | 94.2% | 103% | 92.8% | 101% | 95.5% | 104% | 93.4% | 98.3% | 90.9% | 96.1% | 90.5% | 100% | 92.4% | 99% | 102% | 101% | 99.3% | 103% | 94.5%
O=C(O)C(Cc1ccccc1[N+](=O)[O-])=NNc1nc(-c2ccc(Cl)c(Cl)c2)cs1 [4EGI-1] | 0.1 | 0 | 0 | 4.3 | 0 | > 10 µM | > 10 µM | > 10 µM | 1.96 µM | > 10 µM | 87.1% | 103% | 98.1% | 112% | 84.8% | 97.9% | 95.3% | 96.7% | 92% | 100% | 98.1% | 100% | 97.7% | 104% | 96.7% | 101% | 104% | 102% | 91.6% | 45.5% | 94.5% | 96.7% | 93.8% | 93.7% | 93.1%
O=[N+]([O-])c1cccc2cn[nH]c12 [7-nitroindazole] | 0 | 0 | 0 | 0 | 0 | > 10 µM | > 10 µM | > 10 µM | > 10 µM | > 10 µM | 100% | 94.4% | 97.1% | 106% | 97.8% | 103% | 96.5% | 99.6% | 98.7% | 98.7% | 102% | 101% | 99.4% | 97.6% | 93.4% | 102% | 96.3% | 88.2% | 99.2% | 98.1% | 99.7% | 102% | 99.8% | 104% | 97.9%
Nc1ncnc2c1nc(Br)n2[C@@H]1O[C@@H]2COP(=O)(O)O[C@H]2[C@H]1O [8-bromo-cAMP] | 0.7 | 0 | 0 | 0 | 0 | > 10 µM | > 10 µM | > 10 µM | > 10 µM | > 10 µM | 106% | 95.8% | 97.8% | 98.5% | 81.5% | 100% | 102% | 103% | 102% | 96% | 92.8% | 104% | 95.9% | 103% | 95.8% | 95.2% | 96.5% | 93.1% | 98.2% | 85.7% | 102% | 96.8% | 105% | 99% | 102%
Cc1c(C(=O)NN2CCOCC2)nn(-c2ccc(Cl)cc2Cl)c1-c1ccc(I)cc1 [AM-281] | 0 | 0 | 0.2 | 0 | 0 | > 10 µM | > 10 µM | > 10 µM | > 10 µM | > 10 µM | 96.8% | 100% | 96.2% | 96.2% | 107% | 98.3% | 96.6% | 98.4% | 94.5% | 106% | 102% | 113% | 104% | 94.5% | 88.1% | 105% | 95.7% | 102% | 101% | 103% | 96.9% | 101% | 95.5% | 100% | 100%
C[C@H]1CC[C@H](n2c3cnccc3c3cnc(Nc4ccc5c(n4)CCN(C(=O)CO)C5)nc32)CC1 [AMG-925] | 0 | 0 | 0 | 0 | 0 | > 10 µM | > 10 µM | > 10 µM | > 10 µM | > 10 µM | 112% | 95.5% | 96.4% | 95.3% | 91.3% | 99.6% | 92.8% | 96.1% | 95.9% | 104% | 95.1% | 109% | 100% | 109% | 93% | 105% | 90.3% | 113% | 100% | 101% | 98.8% | 100% | 97.1% | 99.4% | 96.7%
Cc1ccc(S(=O)(=O)NCc2ccccc2)cc1 [BTS] | 0 | 0 | 0 | 0 | 0 | > 10 µM | > 10 µM | > 10 µM | > 10 µM | > 10 µM | 95.1% | 99.3% | 101% | 90% | 99.9% | 104% | 101% | 91.7% | 95.9% | 93.4% | 98.1% | 100% | 106% | 102% | 112% | 102% | 110% | 95.3% | 110% | 107% | 96.7% | 97.4% | 107% | 98% | 102%
CC(C)(C)NC(=O)N[C@H](C(=O)N1C[C@H]2[C@@H]([C@H]1C(=O)NC(CC1CCC1)C(=O)C(N)=O)C2(C)C)C(C)(C)C (stereo not given in full) [Boceprevir] | 0 | 0 | 0 | 0 | 0 | > 10 µM | > 10 µM | > 10 µM | > 10 µM | > 10 µM | 103% | 94.4% | 108% | 92.5% | 105% | 102% | 100% | 102% | 92.7% | 99.9% | 102% | 95.1% | 95.7% | 100% | 102% | 102% | 102% | 95.6% | 100% | 105% | 102% | 93.7% | 100% | 96.1% | 91.6%
C[C@H]1CCc2c(cc(Br)c(F)c2Br)N1C=O [CE3F4] | 0 | 0 | 0.2 | 0 | 0 | > 10 µM | > 10 µM | > 10 µM | > 10 µM | > 10 µM | 105% | 99.9% | 91.9% | 104% | 88.8% | 103% | 101% | 98.2% | 93.8% | 102% | 105% | 102% | 89.6% | 93.7% | 90% | 110% | 99.2% | 113% | 100% | 103% | 98.3% | 101% | 99.6% | 102% | 96.1%
Oc1cc2c(cc1O)[C@H](Cc1cccc3ccccc13)NCC2 [CKD-712] | 0 | 0 | 0 | 0.3 | 0 | > 10 µM | > 10 µM | > 10 µM | > 10 µM | > 10 µM | 88.6% | 94.2% | 105% | 98.4% | 92.4% | 102% | 100% | 100% | 99% | 95.7% | 105% | 95% | 108% | 105% | 102% | 106% | 101% | 97.9% | 99.7% | 84.8% | 101% | 93.8% | 98.6% | 112% | 96.6%
CCC[C@H](Nc1nc(-c2ccc(NC(=O)NCC)c(OC)c2)ncc1C)c1cccnc1 [CYT-997] | 12.4 | 14.4 | 17.4 | 17.9 | 21.3 | 0.198 µM | 0.303 µM | 0.0547 µM | 0.0687 µM | 0.0761 µM | 97.9% | 93.5% | 84% | 42.6% | 38.2% | 95.7% | 100% | 98.5% | 22% | 23.7% | 99.4% | 96% | 54.4% | 37% | 37.5% | 101% | 106% | 51.8% | 36.3% | 33.3% | 97.2% | 102% | 45.6% | 19.1% | 18.2%
O=C1Nc2ccc(Cl)c3c2C1(CCCCN1CC=C(c2ccc(Cl)cc2)CC1)CCC3 (stereo not given) [DR-4485] | 6.5 | 4.6 | 5.5 | 5.4 | 6.2 | 2.5 µM | 1.95 µM | 3.16 µM | 3.27 µM | 2.74 µM | 103% | 95.3% | 99.6% | 92.3% | 4.8% | 100% | 96.7% | 92.9% | 91.1% | 42.5% | 105% | 87.6% | 103% | 99.9% | 1.7% | 93.7% | 100% | 94.1% | 102% | -0.2% | 96.2% | 97.5% | 98.6% | 94.7% | 2.4%
